# Reference: US20070172957A1, “Methods of identifying anti-inflammatory macrolides” (TAISHO PHARMACEUTICAL CO., LTD., priority 2004, published 2007)
# System: genes predictive for the anti-inflammatory macrolide effect
# Test: Genes statistically predictive of Clari response: differentially expressed with Clari but not the inactive macrolides MAA or Josa (Appendix E)
# Assay type: cell-based
# Description: In the case of the above-mentioned (i) related to arachidonic acid biosynthesis, specifically, methods of the embodiment involve assaying whether a test macrolide alters biosynthesis of arachidonic acid, alters the expression or activities of enzymes involved in the biosynthesis or activation of arachidonic acid (e.g., arachidonic acid CoA synthetase, delta-6 desaturase, fatty acid elongase, and delta-5 desaturase, AA-related genes in Tables 2 and 3), or alters the expression of genes identified as predictive for the anti-inflammatory macrolide effect (Appendix E). Assays in which arachidonic acid or gene expression or enzymatic activity is detected can be carried out after contacting a cell with a test macrolide. Any cell line that secretes prostaglandin or produces arachidonic acid can be used. Epithelial and macrophages lines (e.g., A549 or THP-1) are suitable for this purpose; other cell lines can be identified by carrying out assays such as those described in the specific Examples, below. Alternatively, screening assays can be carried out after adding a test macrolide to an in vitro cell system (e.g., a cellular extract or liver microsome preparation) or an in vitro enzyme assay system.
compound,measurement,setting,value
CO[C@@H]1[C@@H](O[C@@H]2O[C@H](C)[C@@H](O[C@H]3C[C@@](C)(O)[C@@H](OC(=O)CC(C)C)[C@H](C)O3)[C@H](N(C)C)[C@H]2O)[C@@H](CC=O)C[C@@H](C)[C@@H](O)/C=C/C=C/C[C@@H](C)OC(=O)C[C@H]1OC(C)=O [josamycin],"group mean, gene UNG","SpotID 48807, MAA and Josa vs. Clari",1.03
same,"group mean, gene TUBB","SpotID 48914, MAA and Josa vs. Clari",0.96
same,"group mean, gene ITGAE","SpotID 48921, MAA and Josa vs. Clari",0.85
same,"mean group, ITGAE","SpotID 48921, pooled group mean",0.85
same,"group mean, gene P4HA2","SpotID 48971, MAA and Josa vs. Clari",1.07
same,"group mean, gene FADS1","SpotID 48998, MAA and Josa vs. Clari",1.02
same,"group mean, gene PRSS25","SpotID 49006, MAA and Josa vs. Clari",1.02
same,"mean group, PRSS25","SpotID 49006, pooled group mean",1.02
same,"group mean, gene TM9SF2","SpotID 49007, MAA and Josa vs. Clari",1.08
same,"mean group, TM9SF2","SpotID 49007, pooled group mean",1.08
same,"group mean, gene BBC3","SpotID 49013, MAA and Josa vs. Clari",0.93
same,"group mean, gene BNIP3L","SpotID 49028, MAA and Josa vs. Clari",1.03
same,"mean group, BNIP3L","SpotID 49028, pooled group mean",1.03
same,"group mean, gene GSK3B","SpotID 49032, MAA and Josa vs. Clari",1.06
same,"group mean, gene GLUD1","SpotID 49047, MAA and Josa vs. Clari",1.05
same,"group mean, gene SERPINB1","SpotID 49117, MAA and Josa vs. Clari",1.01
same,"mean group, SERPINB1","SpotID 49117, pooled group mean",1.01
same,"group mean, gene PPIB","SpotID 49142, MAA and Josa vs. Clari",1.03
same,"group mean, gene PIK3R3","SpotID 49144, MAA and Josa vs. Clari",1.01
same,"group mean, gene ARTS-1","SpotID 49155, MAA and Josa vs. Clari",1.11
same,"mean group, ARTS-1","SpotID 49155, pooled group mean",1.11
same,"group mean, gene LGALS3","SpotID 49163, MAA and Josa vs. Clari",1.06
same,"group mean, gene RRS1","SpotID 49169, MAA and Josa vs. Clari",1.09
same,"mean group, RRS1","SpotID 49169, pooled group mean",1.09
same,"group mean, gene YAF2","SpotID 49172, MAA and Josa vs. Clari",1.01
same,"group mean, gene NEDD8","SpotID 49177, MAA and Josa vs. Clari",0.97
same,"group mean, gene SRRM1","SpotID 49183, MAA and Josa vs. Clari",0.96
same,"group mean, gene FUCA1","SpotID 49197, MAA and Josa vs. Clari",0.98
same,"group mean, gene APOE","SpotID 49233, MAA and Josa vs. Clari",0.96
same,"mean group, APOE","SpotID 49233, pooled group mean",0.96
same,"mean group, TNFRSF10B","SpotID 49272, pooled group mean",0.97
same,"group mean, gene PPIB","SpotID 49314, MAA and Josa vs. Clari",1.04
same,"mean group, PPIB","SpotID 49314, pooled group mean",1.04
same,"group mean, gene YWHAH","SpotID 49318, MAA and Josa vs. Clari",1.08
same,"mean group, YWHAH","SpotID 49318, pooled group mean",1.08
same,"group mean, gene HNRPA3","SpotID 49347, MAA and Josa vs. Clari",1.01
same,"group mean, gene NCBP2","SpotID 49352, MAA and Josa vs. Clari",0.94
same,"group mean, gene TEB4","SpotID 49360, MAA and Josa vs. Clari",1.10
same,"mean group, TEB4","SpotID 49360, pooled group mean",1.10
same,"group mean, gene ABCE1","SpotID 49364, MAA and Josa vs. Clari",1.06
same,"group mean, gene EIF3S9","SpotID 49373, MAA and Josa vs. Clari",1.06
same,"mean group, SpotID 49374","SpotID 49374 (gene symbol not given), pooled group mean",0.97
same,"group mean, SpotID 49374 (gene symbol not given)","SpotID 49374, MAA and Josa vs. Clari",0.97
same,"group mean, gene SLC35A2","SpotID 49380, MAA and Josa vs. Clari",0.99
same,"group mean, gene PPP3CB","SpotID 49391, MAA and Josa vs. Clari",1.02
same,"group mean, gene TRRAP","SpotID 49435, MAA and Josa vs. Clari",1.07
same,"mean group, TRRAP","SpotID 49435, pooled group mean",1.07
same,"group mean, gene SRC","SpotID 49446, MAA and Josa vs. Clari",1.00
same,"mean group, SRC","SpotID 49446, pooled group mean",1.00
same,"group mean, gene LOC55871","SpotID 49481, MAA and Josa vs. Clari",0.90
same,"group mean, gene VTN","SpotID 49490, MAA and Josa vs. Clari",1.12
same,"mean group, VTN","SpotID 49490, pooled group mean",1.12
same,"group mean, gene MATN2","SpotID 49511, MAA and Josa vs. Clari",0.93
same,"group mean, gene GC20","SpotID 49512, MAA and Josa vs. Clari",1.01
same,"group mean, gene UBC","SpotID 49514, MAA and Josa vs. Clari",0.97
same,"mean group, UBC","SpotID 49514, pooled group mean",0.97
same,"group mean, gene AP1G2","SpotID 49524, MAA and Josa vs. Clari",0.74
same,"mean group, AP1G2","SpotID 49524, pooled group mean",0.74
same,"group mean, gene GNPI","SpotID 49546, MAA and Josa vs. Clari",1.05
same,"mean group, LOC54543","SpotID 49577, pooled group mean",0.88
same,"group mean, gene PSMC4","SpotID 49580, MAA and Josa vs. Clari",1.12
same,"mean group, CSTF3","SpotID 49606, pooled group mean",0.98
same,"group mean, gene POU4F1","SpotID 49608, MAA and Josa vs. Clari",0.97
same,"group mean, gene CLN2","SpotID 49618, MAA and Josa vs. Clari",1.03
same,"mean group, CLN2","SpotID 49618, pooled group mean",1.03
same,"group mean, gene FGF2","SpotID 49649, MAA and Josa vs. Clari",1.12
same,"group mean, gene MAP3K10","SpotID 49650, MAA and Josa vs. Clari",0.93
same,"mean group, BTN3A2","SpotID 49673, pooled group mean",0.92
same,"mean group, SERPINF1","SpotID 49679, pooled group mean",0.98
same,"group mean, gene GSK3B","SpotID 49688, MAA and Josa vs. Clari",1.05
same,"group mean, gene CAT","SpotID 49698, MAA and Josa vs. Clari",0.92
same,"group mean, gene PCYT2","SpotID 49705, MAA and Josa vs. Clari",0.92
same,"group mean, gene HNRPD","SpotID 49715, MAA and Josa vs. Clari",0.99
same,"group mean, gene GSK3B","SpotID 49735, MAA and Josa vs. Clari",1.02
same,"group mean, gene CHAF1B","SpotID 49737, MAA and Josa vs. Clari",0.99
same,"mean group, CHAF1B","SpotID 49737, pooled group mean",0.99
same,"group mean, gene USF2","SpotID 49744, MAA and Josa vs. Clari",0.93
same,"group mean, gene RPLP0","SpotID 49747, MAA and Josa vs. Clari",0.91
